Measurements reported in ChEMBL document CHEMBL1149984, “Hygromycin A: preparation of aminocyclitol analogs defining the minimum functionality required for biological activity” (1992).
Values after ≈ are worked out from the molar mass of the structure shown.

Key:
[1] = tested on: Brachyspira hyodysenteriae; test: Minimum inhibitory concentration against Serpulina hyodysenteriae was determined; type: functional
[2] = tested on: Pasteurella multocida; test: Minimum inhibitory concentration against Pasteurella multocida was determined; type: functional
[3] = Brachyspira hyodysenteriae, read-out: MIC
[4] = Pasteurella multocida, read-out: MIC

## C/C(=C\c1ccc(O[C@@H]2O[C@H]([C@H](C)O)[C@@H](O)[C@@H]2O)c(O)c1)C(=O)N[C@@H]1CCCC[C@@H]1O
[1]; [3]
  MIC: > 200 µg/mL
[2]; [4]
  MIC: > 200 µg/mL

## C=CCOc1ccc(/C=C(\C)C(=O)N[C@@H]2[C@H](O)[C@@H](O)CC[C@@H]2O)cc1O
[1]
  MIC: 100 µg/mL (≈ 275 µM)
[2]
  MIC: >200 µg/mL

## C=CCOc1ccc(/C=C(\C)C(=O)N[C@@H]2[C@H](O)CCC[C@@H]2O)cc1O
[1]; [3]
  MIC: 12.5 µg/mL (≈ 36 µM)
[2]; [4]
  MIC: 100 µg/mL (≈ 288 µM)

## C=CCOc1ccc(/C=C(\C)C(=O)N[C@@H]2[C@H](O)[C@@H](O)[C@H]3OCO[C@H]3[C@@H]2O)cc1O
[1]; [3]
  MIC: 0.78 µg/mL (≈ 1.91 µM)
[2]; [4]
  MIC: 1.56 µg/mL (≈ 3.83 µM)

## C=CCOc1ccc(/C=C(\C)C(=O)N[C@@H]2[C@H](O)[C@@H](O)CC[C@@H]2O)cc1O (racemic)
[1]
  MIC: 6.25 µg/mL (≈ 17.2 µM)
[2]
  MIC: 25 µg/mL (≈ 68.8 µM)

## CC(=O)[C@H]1O[C@@H](Oc2ccc(/C=C(\C)C(=O)N[C@@H]3[C@H](O)[C@@H](O)[C@H]4OCO[C@H]4[C@@H]3O)cc2O)[C@@H](O)[C@@H]1O [HYGROMYCIN A]
[1]; [3]
  MIC: 1.56 µg/mL (≈ 3.05 µM)
[2]; [4]
  MIC: 1.56 µg/mL (≈ 3.05 µM)
